Results as given in patent US20090054470A1, “USE OF MITOCHONDRIAL ELECTRON TRANSPORT INHIBITORS TO CONTROL FOULING ORGANISMS” (priority 2005, published 2009).

Legend:
[1] = tested on: Artemia salina instar II larvae; test: In vitro efficacy against Artemia salina (larval survival); format: in vivo
Procedure: 1. In Vitro Efficacy Against Artemia salina
The crustaceous marine animal Artemia salina was used as a model organism for other marine fouling organisms.
An artificial seawater medium inoculated with approximately 30 Artemia salina instar II larvae was introcuced in each well of a 24 well microtiter plate (2 ml per well). This culture was incubated with the test compound dissolved in dimethylsulfoxide (8000 ppm stock solution in DMSO) in order to have a final concentration of the test compound ranging from 0.027 ppm to 20 ppm in 24 steps. Survival of the Artemia salina larvae was evaluated after 24 and 48 hours. Zinc pyrithione was used as a reference art known antifouling agent and a DMSO solution without test compound was used as control.
The ECX value (in […]=ppm): lowest concentration of the test compound at which moderate activity (reduced vitality of Artemia salina larvae) was observed and has been listed below in Table 1.

animal fouling = test: Field evaluation of marine antifouling activity (painted PVC boards immersed in sea water); conditions: Oosterschelde at Bruinisse, average of two scores; for Fouling scores after x weeks: vinylite paint on PVC panels; for Fouling scores after 12 weeks: rosin paint on PVC panels
Excerpt: 2. Field Evaluation of Marine Antifouling Activity […]
Composition vinylite paint (% w/w): 9.1% test compound (74% in the dried coating), 3.2% vinylite, 87.7% cyclohexanone.
Composition rosin paint (% w/w): 6.7% test compound (18.4% in the dried coating), 34.9% rosin (69.6% in xylene), 6.3% vinyl resin, 5.7% tritolyl phosphate, 45.0% methyl isobutylketone and 1.4% xylene.
The PVC boards (10×2×0.5 cm) were painted twice to obtain a coating layer of 140 g/m^2 having a thickness of 50 μm and dried for two weeks before immersion in sea water. The exact quantity of test compound on each board was determined by comparing the initial and final weights of the PVC boards. The PVC boards were placed in a frame and suspended from the bottom of a raft at a depth of 0.6 m below the sea water surface level.
Rating system to evaluate surface fouling:
score 0: no growth on the panel score 1: up to 20% of the surface covered by fouling organisms score 2: between 21% and 40% of the surface covered by fouling organisms score 3: between 41% and 60% of the surface covered by fouling organisms score 4: between 61% and 80% of the surface covered by fouling organisms score 5: more than 81% of the surface covered by fouling organisms
Figures are an average of two scores (back and front of test panel).

| Compound | ECX (lowest concentration at which reduced vitality of Artemia salina larvae) ([1]; 24 hours) | MIC (lowest concentration at which all Artemia salina larvae dead) ([1]; 24 hours) | ECX (lowest concentration at which reduced vitality of Artemia salina larvae) ([1]; 48 hours) | MIC (lowest concentration at which all Artemia salina larvae dead) ([1]; 48 hours) | Fouling scores after x weeks (animal fouling; 4 weeks) | Fouling scores after x weeks (animal fouling; 8 weeks) | Fouling scores after x weeks (animal fouling; 15 weeks) | Fouling scores after 12 weeks (animal fouling) |
| --- | --- | --- | --- | --- | --- | --- | --- | --- |
| CC(C)(C)c1ccc(CCOc2ncnc3ccccc23)cc1 [fenazaquin] | 0.84 mg/l (=ppm) | 1.5 mg/l (=ppm) | 0.84 mg/l (=ppm) | 1.5 mg/l (=ppm) | 0 | 0 | 3 (score 3: between 41% and 60% of the surface covered by fouling organisms) | – |
| CC(C)(C)c1ccc(CSc2cnn(C(C)(C)C)c(=O)c2Cl)cc1 [pyridaben] | 0.36 mg/l (=ppm) | 2 mg/l (=ppm) | 0.36 mg/l (=ppm) | 0.48 mg/l (=ppm) | – | – | – | 1.5 |
| CCc1nn(C)c(C(=O)NCc2ccc(C(C)(C)C)cc2)c1Cl [tebufenpyrad] | 1.13 mg/l (=ppm) | 2 mg/l (=ppm) | 0.84 mg/l (=ppm) | 1.5 mg/l (=ppm) | – | – | – | 1.5 |
| Zinc pyrithione | 8.44 mg/l (=ppm) | 20 mg/l (=ppm) | 6.33 mg/l (=ppm) | 11.25 mg/l (=ppm) | – | – | – | – |
